In patent US20230141284A1, “CANCER THERAPEUTIC METHOD” (ONO PHARMACEUTICAL CO., LTD., priority 2020, published 2023):
Counter-ions that a name gives are not always drawn.

Key:
[1] = test system: IRF (Interferon Regulatory Factor) pathway; assay: Effect on IRF (Interferon Regulatory Factor) pathway, Quanti-luc reporter cells; type: cell-based; conditions: activation of the IRF pathway, luminescence, about 24 hours incubation
Experimental: The cells mainly described at lines 12-20 of the right column on page 183 in Mol Immunol. 2017, Vol. 90, p. 182-189 were suspended in RPMI medium to prepare 2×10^6 cells/mL of cell suspension. 50 μL of the cell suspensions were dispensed into a 96-well plate, to which 50 μL of 6 to 20,000 nmol/L compound solutions were added. After adding the compound, the mixture thereof was incubated at 37° C. for about 24 hours. After incubation, 10 μL of cell suspensions were collected from each well, which were mixed with 50 μL of Quanti-luc (Invivogen). Then, the activation of the IRF pathway was measured by detecting luminescence using a microplate reader (Molecular Devices).

[2] = Conversion of a prodrug to its active body (Compound B) in mouse plasma; type: in vitro ADME; conditions: 1 μmol/L, 37° C., 60 minutes
Experimental: (§1) The solutions of the example compounds in Table 2 below (50 μmol/L, 50% acetonitrile with 5% DMSO) were added to plasma (245 μL), respectively, such that the final concentrations thereof become 1 μmol/L. After keeping them the temperature at 37° C. for 60 minutes, 40 μL of the reaction solutions were taken therefrom, and added to 200 μL of acetonitrile/ethanol (7:3) containing Candesartan (internal standard).
(§2) The concentration of the compound prepared in Example 3 (Compound B) in the plasma resulting from the above reaction was analyzed by LC-MS/MS according to the following method.
(§3) The whole amount was transferred to a filter plate for protein removal and filtered by suction, and the filtrate thereof was diluted 2-fold with water. [LC column] Shim-pack XR-ODSII 2.0 mm ID×75 mm (Shimadzu Corporation) [LC condition] Column temperature: 40° C. Mobile phase: A: 0.2% formic acid in 5 mM ammonium acetate solution; and
(§4) [MS conditions] Electrospray, positive mode, multiple reaction monitoring; MS monitor ion: Compound B: m/z353.0→m/z311.2, DP: 80, CE: 35; and Candesartan (internal standard): m/z309.1→m/z163.0, DP: 71, CE: 21.
(§5) A regression formula was calculated from the peak area ratio (peak area of Compound B/peak area of Candesartan) of the real sample and the standard sample for the calibration curve in the same matrix, and the peak area ratio of the real sample was substituted into the regression formula to calculate the quantitative value. 60 minutes later, the concentration of Compound B in the sample was compared, and the conversion rate (%) thereof was calculated using the following formula:
(§6) Conversion rate (%)=Concentration of Compound B in the sample after 60 minutes (μmol/L)×100

[3] = Conversion of a prodrug to its active body (Compound B) in human plasma; type: in vitro ADME; conditions: 1 μmol/L, 37° C., 60 minutes
Experimental: as §1, §2, §3, §4, §5, §6

EC50 [1] [nM]	Plasma conversion rate Mouse [2]	Plasma conversion rate Human [3]	SMILES
80	–	–	NC(=O)c1cc(-c2ncc(-c3cn[nH]c3)c3onc(N)c23)c(F)cc1N [Example 4(5), 2-amino-5-(3-amino-7-(1H-pyrazol-4-yl)isoxazolo[4,5-c]pyridin-4-yl)-4-fluorobenzamide hydrochloride]
40	–	–	CCOC(=O)c1cc(-c2ncc(-c3cn[nH]c3)c3onc(N)c23)c(F)cc1N [Example 4(6), ethyl 2-amino-5-(3-amino-7-(1H-pyrazol-4-yl)isoxazolo[4,5-c]pyridin-4-yl)-4-fluorobenzoate hydrochloride]
20	–	–	CCC(=O)c1cc(-c2ncc(-c3cn[nH]c3)c3onc(N)c23)c(F)cc1N [Example 4(7), 1-(2-amino-5-(3-amino-7-(1H-pyrazol-4-yl)isoxazolo[4,5-c]pyridin-4-yl)-4-fluorophenyl)propan-1-one hydrochloride]
20	–	–	CCNC(=O)c1cc(-c2ncc(-c3cn[nH]c3)c3onc(N)c23)c(F)cc1N [Example 4(8), 2-amino-5-(3-amino-7-(1H-pyrazol-4-yl)isoxazolo[4,5-c]pyridin-4-yl)-N-ethyl-4-fluorobenzamide hydrochloride]
100	–	–	CNC(=O)c1cc(-c2ncc(-c3cn[nH]c3)c3onc(N)c23)ccc1N [Example 4(15), 2-amino-5-(3-amino-7-(1H-pyrazol-4-yl)isoxazolo[4,5-c]pyridin-4-yl)-N-methylbenzamide hydrochloride]
1000	–	–	CSc1cc(-c2ncc(-c3cn[nH]c3)c3onc(N)c23)c(Cl)cc1N [Example 4(16), 4-(4-amino-2-chloro-5-(methylthio)phenyl)-7-(1H-pyrazol-4-yl)isoxazolo[4,5-c]pyridin-3-amine hydrochloride]
90	–	–	CSc1cc(-c2ncc(-c3cn[nH]c3)c3onc(N)c23)c(F)cc1N [Example 4, 4-(4-amino-2-fluoro-5-(methylthio)phenyl)-7-(1H-pyrazol-4-yl)isoxazolo[4,5-c]pyridin-3-amine hydrochloride]
–	+ + +	+ + +	CNCC(=O)OCc1cccnc1N(C)C(=O)OC(C)n1cc(-c2cnc(-c3cc(C(C)=O)c(N)cc3F)c3c(N)noc23)cn1 (stereo not drawn) [Example 12(2), (2-(((1-(4-(5-(5-acetyl-4-amino-2-fluorophenyl)-3-aminoisoxazolo[4,5-c]pyridin-7-yl)-1H-pyrazol-1-yl)ethoxy)carbonyl)(methyl)amino)pyridin-3-yl)methyl methylglycinate]
–	+ + +	+ + +	CNCC(=O)OCc1cccnc1N(C)C(=O)OCn1cc(-c2cnc(-c3cc(C(C)=O)c(N)cc3F)c3c(N)noc23)cn1.Cl [Example 12(3), 2-((2-((((4-(4-(5-acetyl-4-amino-2-fluorophenyl)-3-aminoisoxazolo[4,5-c]pyridin-7-yl)-1H-pyrazol-1-yl)methoxy)carbonyl)(methyl)amino)pyridin-3-yl)methoxy)-N-methyl-2-oxoethane-1-ammonium chloride]
–	+ + +	+ + +	CC(=O)c1cc(-c2ncc(-c3cnn(COC(=O)OCCN4CCOCC4)c3)c3onc(N)c23)c(F)cc1N.Cl [Example 12(4), (4-(4-(5-acetyl-4-amino-2-fluorophenyl)-3-aminoisoxazolo[4,5-c]pyridin-7-yl)-1H-pyrazol-1-yl)methyl (2-morpholinoethyl)carbonate hydrochloride]
–	+ + +	+ + +	CC(=O)c1cc(-c2ncc(-c3cnn(COC(=O)OC[C@H]4OC(O)[C@H](O)[C@@H](O)[C@@H]4O)c3)c3onc(N)c23)c(F)cc1N (stereo partly drawn) [Example 12(5), (4-(4-(5-acetyl-4-amino-2-fluorophenyl)-3-aminoisoxazolo[4,5-c]pyridin-7-yl)-1H-pyrazol-1-yl)methyl (((2R,3S,4S,5R)-3,4,5,6-tetrahydroxytetrahydro-2H-pyran-2-yl)methyl) carbonate]
–	+ + +	+ + +	CC(=O)c1cc(-c2ncc(-c3cnn(COC(=O)OC[C@H]4OC(O)[C@H](N)[C@@H](O)[C@@H]4O)c3)c3onc(N)c23)c(F)cc1N.Cl (stereo partly drawn) [Example 12(6), (4-(4-(5-acetyl-4-amino-2-fluorophenyl)-3-aminoisoxazolo[4,5-c]pyridin-7-yl)-1H-pyrazol-1-yl)methyl (((2R,3S,4R,5R)-5-amino-3,4,6-trihydroxytetrahydro-2H-pyran-2-yl)methyl) carbonate hydrochloride]
–	+ + +	+ + +	COC(=O)n1cc(-c2cnc(-c3cc(C(C)=O)c(N)cc3F)c3c(N)noc23)cn1 [Example 12(10), methyl 4-(4-(5-acetyl-4-amino-2-fluorophenyl)-3-aminoisoxazolo[4,5-c]pyridin-7-yl)-1H-pyrazole-1-carboxylate]

SMILES	EC50 [1] [nM]	Plasma conversion rate Mouse [2]	Plasma conversion rate Human [3]
CC(=O)c1cc(-c2ncc(-c3cnn(COC(=O)N(C)c4ncccc4COP(=O)(O)O)c3)c3onc(N)c23)c(F)cc1N [Example 12(1), (4-(5-(5-acetyl-4-amino-2-fluorophenyl)-3-aminoisoxazolo[4,5-c]pyridin-7-yl)-1H-pyrazol-1-yl)methyl methyl(3-((phosphonooxy)methyl)pyridin-2-yl)carbamate]	–	+ (the conversion rate of each example compound in the table to Compound B is less than 25%)	+ +
CC(=O)c1cc(-c2ncc(-c3cnn(C(=O)NCC(=O)O)c3)c3onc(N)c23)c(F)cc1N [Example 12(9), (4-(4-(5-acetyl-4-amino-2-fluorophenyl)-3-aminoisoxazolo[4,5-c]pyridin-7-yl)-1H-pyrazole-1-carbonyl)glycine]	–	+ (the conversion rate of each example compound in the table to Compound B is less than 25%)	+ (the conversion rate of each example compound in the table to Compound B is less than 25%)
CC(=O)c1cc(-c2ncc(-c3cnn(COP(=O)(O)OCOC(=O)OC(C)C)c3)c3onc(N)c23)c(F)cc1N [Example 12(11), ((((4-(4-(5-acetyl-4-amino-2-fluorophenyl)-3-aminoisoxazolo[4,5-c]pyridin-7-yl)-1H-pyrazol-1-yl)methoxy)(hydroxy)phosphoryl)oxy)methyl isopropyl carbonate]	–	+ (the conversion rate of each example compound in the table to Compound B is less than 25%)	+ (the conversion rate of each example compound in the table to Compound B is less than 25%)
CC(=O)c1cc(-c2ncc(-c3cnn(COC(=O)N4CCC(N5CCCCC5)CC4)c3)c3onc(N)c23)c(F)cc1N [Example 12, (4-(4-(5-acetyl-4-amino-2-fluorophenyl)-3-aminoisoxazolo[4,5-c]pyridin-7-yl)-1H-pyrazol-1-yl)methyl [1,4′-bipiperidine]-1′-carboxylate]	–	+ (the conversion rate of each example compound in the table to Compound B is less than 25%)	+ (the conversion rate of each example compound in the table to Compound B is less than 25%)
